Values joined by “and” are separate entries in the source; they are usually repeats but may differ in a detail not shown here. Equal entries are not always repeated.
Experiments:
[1] = test system: Frings audiogenic seizure-susceptible mice; settings: mouse, in vivo
[2] = test system: Frings audiogenic seizure susceptible mice; settings: mouse, in vivo

Structure (SMILES)	toxicity (rotorod) [1]	animals protected [2]
CC1(C)O[C@@H]2[C@@H](CO[C@@]3(COS(N)(=O)=O)OC(C)(C)O[C@@H]23)O1 [Topiramate, reference compound]	no marked	–
NC(=O)OCC(COC(N)=O)c1ccccc1 [Felbamate, reference compound]	no marked	5/8 protected and 4/8 protected

Source: patent US6399574B1 (priority 1997, dated 2002)
